Tests used:
[1] = tested on: PTPN13; assay: PTPN13 protein expression by Western blot in lung fibroblasts; type: cell-based, human; conditions: normal, fibrotic and MRC5 fibroblasts; TNF-α 10 ng/ml, IFN-γ 50 U/ml; 36 hours
Method: (§1) To assess the effects of these cytokines on PTPN13 expression, non-diseased normal human lung fibroblasts (NHLF), fibrotic human lung fibroblasts (FHLF) and a fetal lung fibroblast cell line, MRC5 cells, were treated with TNF-α (10/ng/ml), IFN-γ (50 U/ml) or with both cytokines for 6 hours. PTPN13 expression was measured by quantitative PCR (FIG. 2A). The primary lung fibroblasts from normal and fibrotic lung had equivalent levels of PTPN13 expression to the MRC5 lung fibroblast cell line. […] Treatment with TNF-α alone caused a 40% decrease in PTPN13 expression. Combined exposure to TNF-α and IFN-γ decreased PTPN13 mRNA expression by 80%. Protein lysates from normal, fibrotic and MRC5 fibroblasts treated for 36 hours with TNF-α (10/ng/ml), IFN-γ (50 U/ml) or with both cytokines were then analyzed for PTPN13 expression. […]
In one exemplary method, to assess whether PTPN13 expression prevents Fas-induced apoptosis, PTPN13 expression was knocked-down using siRNA. […] Apoptosis was assayed by quantifying activation of caspase-3 and caspase-8 (FIG. 3C).
FIG. 3: Decreased PTPN13 expression sensitizes fibroblasts to Fas-induced apoptosis. […] PTPN13 expression was quantified by western blot analysis and densitometry was performed. […] Fas activating antibody (250 ng/ml) (Fas activating antibody) or PBS (unstimulated) was added for 2 hours before analyzing Caspase-8 activation by a fluorescence-based assay. c. […]

[2] = tested on: PTPN13; assay: PTPN13 mRNA expression by quantitative PCR in lung fibroblasts; type: cell-based, human; conditions: NHLF, FHLF and MRC5, IFN-γ 50 U/ml, 6 hours
Method: as §1
FIG. 2: TNF-α and IFN-γ decrease PTPN13 expression. […] A. Top panel is a quantitative RT-PCR analysis of PTPN13 mRNA lower panel is a Western blot analysis for PTPN13 protein.B. Time course of PTPN13 mRNA expression following TNF-a (10 ng/ml) and IFN-g (50 U/ml) treatment. […] Caspase-8 was measured using a fluorescence based assay.
Total RNA was obtained from 1×10^6 MRC5 cells using the Qiagen RNA Miniprep Kit (Qiagen) following the manufacturer's instructions. […] The fluorescence values of the threshold cycles were collected and normalized to GAPDH. […]

[3] = tested on: murine model of fibrosis; assay: Bleomycin murine model of fibrosis, mortality; type: in vivo, mouse; conditions: 2.5 U/kg bleomycin into the trachea
Method: To assess the effect of PTPN13 on development of fibrosis in vivo, we used a murine model of fibrosis in a PTPN13-/- mouse. The PTPN13-/- mouse has been characterized by Grusby to have abnormal STAT4 signaling which leads to augmented skewing toward TH1 or TH2 phenotypes. 2.5 U/kg bleomycin was administered directly into the tracheas of PTPN13-/- mice along with wildtype controls. […] Due to drastic weight decreases in the wildtype mice, two weeks was chosen as the end time point. […] Of the 20 wildtype mice treated with bleomycin, 11 (55%) died before two weeks as compared to the PTPN13-/- mice where three of the 20 (15%) died. Saline had no effect on mortality. Then static compliance was measured. The saline treated wildtype and PTPN13-/- mice had similar values of static compliance. […] Collagen content was measured in the lung using a hydroxyproline assay. […] To determine a possible cause for the decreased static compliance in the PTPN13-/- mice, we also measured other markers of lung disease, such as cellular infiltration and capillary leak. We measured the cellularity of the bronchoalveolar fluid (BALF). […] Capillary leak was determined by albumin present in the BALF (FIG. 6F). […] To validate these findings, stereology was performed on lung sections to quantify presence of collagen and diseased areas. […] Percentage of diseased lung was also measured by stereology. […]

IFN-γ: Recombinant human IFN-γ purchased from R&D Systems
PTPN13 protein expression (Western blot) [1]: not decreased
PTPN13 mRNA expression compared to untreated cells (in words) [2]: minimal decrease

TNF-α
PTPN13 protein expression (Western blot) [1]: decreased
decrease in PTPN13 mRNA expression ([2]; TNF-α 10 ng/ml, compared to untreated cells): 40%

bleomycin
mice that died before two weeks ([3]; PTPN13-/- mice, three of 20): 15%
mice that died before two weeks ([3]; wildtype mice, 11 of 20): 55%

Reference: patent US20130230486A1, “COMPOSITIONS AND METHODS TO INDUCE TARGETED APOPTOSIS” (priority 2010, published 2013)
